The test system of assay [1] is Malassezia pachydermatis (TIMM10024). The experiment in a line: Test Example 1-5 antimicrobial activity test, colony formation inhibition rate after 5 minutes contact. The format is cell-based. The conditions noted are these: contact 5 minutes at 30° C., culturing 5 days. As to the method:
Test Microbial Strain: Malassezia pachydermatis (TIMM10024)
(§1) The Malassezia microbe cultured at 32° C. for 20 hours in a Sabouraud liquid medium containing Tween80 (polyoxyethylene sorbitan monooleate: manufactured by Kanto Chemical Co., Inc.) (0.05% (v/v)) was recovered by centrifugation (3000 rpm, 5 minutes), washed twice with physiological saline, and then suspended in 10 ml of physiological saline, the resulting suspension was allowed to stand for 15 minutes, and then the supernatant was recovered. […] 100 μL of the microbial liquid resulting from the resuspension was applied to a Sabouraud medium containing Tween80 (0.05% (v/v)) and subjected to culturing at 30° C. for 5 days, then the number of colonies formed there (number of colonies formed in the inventive plot) and the number of colonies in a solvent to which the test compound was not added (the number of colonies formed in the non-agent treated plot) were measured, and the colony formation inhibition rate (%) was determined in the same manner as in Test Example 1-4.

Assay [2] has as its system Malassezia Nana (CBS95574). The experiment in a line: Test Example 1-4 antimicrobial activity test, colony formation inhibition rate after 5 minutes contact. The format is cell-based. As to conditions: contact 5 minutes at 30° C., culturing 5 days. The protocol:
Test Microbial Strain: Malassezia Nana (CBS95574)
as §1, with “10 mL” for “10 ml”, “determined according to” for “determined in”, “the following expression.” for “the same manner as in Test Example 1-4.”

Assay [3] has as its system Microsporum canis (TIMM20080 Strain). Kind of assay: Test Example 1-7 antimicrobial activity test, minimum inhibitory concentration. Type of assay: cell-based. The conditions noted are these: Sabouraud medium, 28° C. for 72 hours. The protocol:
(§2) Test Microbial Strains: Trichophyton rubrum (CBS118892 Strain), T. interdegitale (TIMM20065 Strain), Microsporum canis (TIMM20080 Strain), and Arthroderma vanbreuseghemii (TIMM2789)
(§3) Each microbial strain was cultured in a Sabouraud medium containing 500 μg/mL of cycloheximide and 50 μg/mL of chloramphenicol at 28° C. for 8 days, then spores were collected in physiological saline containing Tween80 (polyoxyethylene sorbitan monooleate: manufactured by Kanto Chemical Co., Inc.) (0.05% (v/v)), and this was filtered through a cell strainer (φ40 μm). The spores were recovered from the filtrate by centrifugation (3500 rpm, 5 minutes) and washed twice with physiological saline, and then a spore suspension was prepared (1×10^7 spores/mL). 10 μL of the spore suspension was inoculated into a Sabouraud medium to which compound No. 1 dissolved in DMSO was added to have a predetermined concentration. After culturing at 28° C. for 72 hours, the presence or absence of microbial growth was investigated, and the minimum inhibitory concentration was determined. As a result, the minimum inhibitory concentration of compound No. 1 for each of the four microbial strains was 10 ppm.

In assay [4] the test system is Trichophyton rubrum (CBS118892 Strain). Described as above. As to conditions: Sabouraud medium, 28° C. for 72 hours. The format is cell-based. The protocol: as §2, §3
Assay [5] relates to Arthroderma vanbreuseghemii (TIMM2789). The assay is described as above. The format is cell-based. The conditions noted are these: Trichophyton mentagrophytes, Sabouraud medium, 28° C. for 72 hours. The protocol:
as §2, §3

Assay [6] concerns Candida albicans (TIMM1768 Strain). Kind of assay: Test Example 1-1 antimicrobial activity test, colony formation. Type of assay: cell-based. As to conditions: at 50 ppm, Sabouraud medium, 37° C. for 48 hours. As to the method:
(§4) Test Microbial Strain: Candida albicans (TIMM1768 Strain) Test method: The Candida microbe cultured in an YPD liquid medium at 37° C. for 20 hours was recovered by centrifugation (3000 rpm, 5 minutes), washed twice with physiological saline, and then suspended in physiological saline, and a microbial liquid was prepared in such a way as to provide 2×10^3 cells/mL. 100 μL of the microbial liquid was applied to a Sabouraud medium to which the test compound dissolved in DMSO was added to have a predetermined concentration. After culturing at 37° C. for 48 hours, the presence or absence of colony formation was investigated.

In assay [7] the test system is Cryptococcus neoformans (TIMM1316 Strain). Kind of assay: Test Example 1-3 antimicrobial activity test, colony formation. The format is cell-based. The conditions noted are these: at 20 ppm, Sabouraud medium, 37° C. for 48 hours. The protocol: as §4, with “Cryptococcus neoformans (TIMM1316” for “Candida albicans (TIMM1768”, “Cryptococcus” for “Candida”
Assay [8] concerns T. interdegitale (TIMM20065 Strain). The experiment in a line: Test Example 1-7 antimicrobial activity test, minimum inhibitory concentration. Type of assay: cell-based, Trichophyton interdegitale. As to conditions: Trichophyton, Sabouraud medium, 28° C. for 72 hours. The protocol: as §2, §3
Assay [9] concerns Candida glabrata (TIMM6054 Strain). The experiment in a line: Test Example 1-2 antimicrobial activity test, colony formation. The conditions noted are these: at 200 ppm, YPD medium, 37° C. for 48 hours. The format is cell-based. The protocol:
as §4, with “glabrata (TIMM6054” for “albicans (TIMM1768”, “an YPD” for “a Sabouraud”

Assay [10] relates to A. Niger (TIMM4968 Strain). The experiment in a line: Test Example 1-6 antimicrobial activity test, minimum inhibitory concentration. Type of assay: cell-based. As to conditions: Aspergillus niger, Sabouraud medium, 28° C. for 48 hours. As to the method:
(§5) Test Microbial Strains: Aspergillus fumigatus (TIMM0063 Strain), and A. Niger (TIMM4968 Strain) Test method: The Aspergillus microbe was cultured in a PDA medium at 27° C. for 3 days, then spores were collected in physiological saline containing Tween80 (polyoxyethylene sorbitan monooleate: manufactured by Kanto Chemical Co., Inc.) (0.05% (v/v)), and this was filtered through a cell strainer (+40 μm). The spores were recovered from the filtrate by centrifugation (3500 rpm, 5 minutes) and washed twice with physiological saline, and then a spore suspension was prepared (1×10^7 spores/mL). 10 μL of the spore suspension was inoculated into a Sabouraud medium to which compound No. 1 dissolved in DMSO was added to have a predetermined concentration. After culturing at 28° C. for 48 hours, the presence or absence of microbial growth was investigated, and the minimum inhibitory concentration was determined.

For assay [11], the system named is Aspergillus fumigatus (TIMM0063 Strain). The assay is described as above. The conditions noted are these: Sabouraud medium, 28° C. for 48 hours. Type of assay: cell-based. The protocol:
as §5

Results on one compound are retold here after patent US20260115170A1, “Method of Ameliorating a Symptom or a Disease in a Human Caused by Fungus” (ISHIHARA SANGYO KAISHA, LTD., priority 2020, published 2026).

Each structure is given as a SMILES string. In brackets after ≈: the same amount, converted by molar mass.

The inhibition is the drop in the measured response relative to a control, in per cent. Low readings indicate a response near the control, high ones a response far below the control. In general, MIC refers to the lowest concentration found to suppress growth. A higher MIC goes with a need for much substance. As to `Cc1ccc(-c2nc(C#N)[nH]c2Cl)cc1` [Compound No. 1, 5-Chloro-4-(4-methylphenyl)-1H-imidazole-2-carbonitrile], the inhibition at 100 ppm is 98.1% in assay [1] (at 100 ppm) and 98.5% in assay [2] (at 100 ppm). In addition, the inhibition at 200 ppm came to 100% in assay [1] (at 200 ppm) and 99.9% in assay [2] (at 200 ppm). Besides, the MIC in assay [3] was found to be 10 µg/mL (≈ 45.9 µM); in [4], 10 µg/mL (≈ 45.9 µM); in [5], 10 µg/mL (≈ 45.9 µM); in assay [8] it was 10 µg/mL (≈ 45.9 µM); in [10], 100 µg/mL (≈ 459 µM); in assay [11], 100 µg/mL (≈ 459 µM). In addition, the values for the colony formation result in assay [6], in assay [7] and in [9] were “completely inhibited colony formation”, “completely suppressed colony formation” and “completely suppressed colony formation”, respectively.
